Measurements from ChEMBL document CHEMBL6114969, “Ultra-short lipopeptides containing d-amino acid exhibiting excellent stability and antibacterial activity against gram-positive bacteria” (Eur J Med Chem, 2025).
In brackets after ≈: the same amount, converted by molar mass. Activity calls are given as the source filed them. No cut-off for these calls is given here.

How the values were obtained:
[1] = tested on: Staphylococcus aureus; assay: Antibacterial activity against Staphylococcus aureus ATCC 29213 incubated for 18 to 24 hrs by broth microdilution method; assay type: functional; settings: time 18-24 hrs
[2] = tested on: Staphylococcus epidermidis; assay: Antibacterial activity against Staphylococcus epidermidis ATCC 12228 incubated for 18 to 24 hrs by broth microdilution method; assay type: functional; settings: time 18-24 hrs
[3] = tested on: Enterococcus faecalis; assay: Antibacterial activity against Enterococcus faecalis ATCC 29212 incubated for 18 to 24 hrs by broth microdilution method; assay type: functional; settings: time 18-24 hrs
[4] = tested on: Staphylococcus aureus; assay: Antibacterial activity against methicillin-resistant Staphylococcus aureus ATCC 33591 incubated for 18 to 24 hrs in presence of 0.5 mg/ml of trypsin by broth microdilution method; assay type: functional; settings: time 18-24 hrs
[5] = tested on: Staphylococcus aureus; assay: Antibacterial activity against methicillin-resistant Staphylococcus aureus ATCC 33591 incubated for 18 to 24 hrs in presence of 1 mg/ml of trypsin by broth microdilution method; assay type: functional; settings: time 18-24 hrs
[6] = Stability in mouse serum assessed as compound degradation measured upto 96 hrs by RP-HPLC analysis; assay type: ADME, cell-free; settings: read-out: Drug degradation
[7] = tested on: Staphylococcus aureus; assay: Synergistic bactericidal activity against methicillin-resistant Staphylococcus aureus ATCC 33591 incubated for 18 to 24 hrs in presence of Polymyxin B by time-kill assay; assay type: functional, organism-based; settings: time 18-24 hrs
[8] = tested on: Staphylococcus aureus; assay: Synergistic bactericidal activity against persistent methicillin-resistant Staphylococcus aureus ATCC 33591 incubated for 18 to 24 hrs in presence of imipenem by time-kill assay; assay type: functional, organism-based; settings: time 18-24 hrs
[9] = tested on: Staphylococcus aureus; assay: Induction of drug resistance in methicillin-resistant Staphylococcus aureus ATCC 33591 at sub-MIC measured after 15 passages; assay type: functional, organism-based
[10] = tested on: Staphylococcus aureus; assay: Inhibition of gentamicin-induced drug resistance in methicillin-resistant Staphylococcus aureus ATCC 33591 at sub-MIC measured upto 15 passages; assay type: functional, organism-based
[11] = tested on: Staphylococcus aureus; assay: Inhibition of gentamicin-induced drug resistance in Staphylococcus aureus ATCC 25923 at sub-MIC measured upto 15 passages; assay type: functional, organism-based
[12] = tested on: Staphylococcus aureus; assay: Synergistic antibacterial activity against methicillin-resistant Staphylococcus aureus ATCC 33591 assessed as fractional inhibitory concentration index upto 2 times MIC incubated for 18 to 24 hrs in presence of imipenem by checkerboard assay; assay type: functional; settings: time 18-24 hrs
[13] = tested on: Staphylococcus aureus; assay: Anti-biofilm activity against methicillin-resistant Staphylococcus aureus ATCC 33591 at 8 uM incubated for 24 hrs by MTT assay; assay type: functional, organism-based
[14] = tested on: Staphylococcus aureus; assay: Elimination of biofilm generation of methicillin-resistant Staphylococcus aureus ATCC 33591 incubated for 24 hrs by MTT assay; assay type: functional, organism-based
[15] = tested on: Staphylococcus aureus; assay: Destruction of cell membrane in methicillin-resistant Staphylococcus aureus ATCC 33591 assessed as increase in red fluorescence intensity incubated for 2 hrs by PI staining based analysis; assay type: functional, organism-based
[16] = tested on: Staphylococcus aureus; assay: Induction of morphological changes in methicillin-resistant Staphylococcus aureus ATCC 33591 assessed as large area membrane melting at 4 times MIC incubated for 2 hrs by SEM analysis; assay type: functional, organism-based
[17] = tested on: Staphylococcus aureus; assay: Induction of morphological changes in methicillin-resistant Staphylococcus aureus ATCC 33591 assessed as characteristic membrane rupture at 4 times MIC incubated for 2 hrs by SEM analysis; assay type: functional, organism-based
[18] = tested on: Staphylococcus aureus; assay: Destruction of cell membrane in methicillin-resistant Staphylococcus aureus ATCC 33591 measured upto 360 mins by absorbance based assay; assay type: functional, organism-based
[19] = tested on: Staphylococcus aureus; assay: Induction of ROS production in methicillin-resistant Staphylococcus aureus ATCC 33591 at 1 to 4 times MIC measured upto 360 mins by DCFH-DA dye based analysis; assay type: functional, organism-based
[20] = tested on: DNA; assay: Binding affinity to genomic DNA in methicillin-resistant Staphylococcus aureus ATCC 33591 at 1 to 8 times MIC; assay type: nucleic-acid assay
[21] = Toxicity in Balb/c mouse assessed as change in liver co-efficient at 20 to 80 mg/kg, ip measured after 7 days; assay type: organism-based; settings: in vivo, 168 h, dose 20-80 mg/kg, time 7 day
[22] = Toxicity in Balb/c mouse assessed as organ edema at 20 to 80 mg/kg, ip measured after 7 days; assay type: organism-based; settings: in vivo, 168 h, dose 20-80 mg/kg, time 7 day
[23] = Toxicity in Balb/c mouse assessed as change in serum ALT level at 20 to 80 mg/kg, ip measured after 7 days; assay type: organism-based; settings: in vivo, 168 h, dose 20-80 mg/kg, time 7 day
[24] = Toxicity in Balb/c mouse assessed as change in serum AST level at 20 to 80 mg/kg, ip measured after 7 days; assay type: organism-based; settings: in vivo, 168 h, dose 20-80 mg/kg, time 7 day
[25] = Toxicity in Balb/c mouse assessed as change in serum BUN level at 20 to 80 mg/kg, ip measured after 7 days; assay type: organism-based; settings: in vivo, 168 h, dose 20-80 mg/kg, time 7 day
[26] = Toxicity in Balb/c mouse assessed as change in serum CREA level at 80 mg/kg, ip measured after 7 days; assay type: organism-based; settings: in vivo, 168 h, time 7 day
[27] = Toxicity in Balb/c mouse assessed as cell swelling in liver at 80 mg/kg, ip measured after 7 days by H and E staining based analysis; assay type: organism-based; settings: in vivo, 168 h, time 7 day
[28] = Toxicity in Balb/c mouse assessed as cell swelling in spleen at 80 mg/kg, ip measured after 7 days by H and E staining based analysis; assay type: organism-based; settings: in vivo, 168 h, time 7 day
[29] = tested on: Staphylococcus aureus; assay: Antibacterial activity against methicillin-resistant Staphylococcus aureus ATCC 33591 infected in Balb/c mouse model of acute systemic infection assessed as reduction in inflammatory cell infiltration in heart at 10 mg/kg, ip measured after 5 days by H and E staining based analysis; assay type: functional, organism-based; settings: time 5.0 day
[30] = tested on: Staphylococcus aureus; assay: Antibacterial activity against methicillin-resistant Staphylococcus aureus ATCC 33591 infected in Balb/c mouse model of acute systemic infection assessed as reduction in bleeding in heart at 10 mg/kg, ip measured after 5 days by H and E staining based analysis; assay type: functional, organism-based; settings: time 5.0 day
[31] = tested on: Staphylococcus aureus; assay: Antibacterial activity against methicillin-resistant Staphylococcus aureus ATCC 33591 infected in Balb/c mouse model of acute systemic infection assessed as reduction in cell swelling in liver at 10 mg/kg, ip measured after 5 days by H and E staining based analysis; assay type: functional, organism-based; settings: time 5.0 day
[32] = tested on: Staphylococcus aureus; assay: Antibacterial activity against methicillin-resistant Staphylococcus aureus ATCC 33591 infected in Balb/c mouse model of acute systemic infection assessed as reduction in inflammatory cell infiltration in liver at 10 mg/kg, ip measured after 5 days by H and E staining based analysis; assay type: functional, organism-based; settings: time 5.0 day
[33] = tested on: Mus musculus; assay: In vivo inhibition of inflammation in Balb/c mouse model of acute systemic infection infected with methicillin-resistant Staphylococcus aureus ATCC 33591 assessed as reduction in TNF-alpha activity at 10 mg/kg, ip measured after 5 days; assay type: functional, organism-based; settings: time 5.0 day
[34] = tested on: Staphylococcus aureus; assay: Antibacterial activity against methicillin-resistant Staphylococcus aureus ATCC 33591 infected in Balb/c mouse model of pneumonia infection assessed as reduction in IL-1beta activity in lung at 10 mg/kg, ip administered thrice at 4, 8 and 12 hrs post-infection measured after 24 hrs post-infection by IHC analysis; assay type: functional, organism-based; settings: time 20.0 hrs
[35] = tested on: Staphylococcus aureus; assay: Antibacterial activity against methicillin-resistant Staphylococcus aureus ATCC 33591 infected in Balb/c mouse model of skin wound infection assessed as reduction in bacterial load in skin at 10 mg/kg, ip administered thrice at 1, 24 and 48 hrs post-infection measured after 72 hrs post-infection in presence of polymyxin B; assay type: functional, organism-based; settings: time 71.0 hrs
[36] = tested on: Staphylococcus aureus; assay: (§1) Antibacterial activity against methicillin-resistant Staphylococcus aureus ATCC 33591 infected in Balb/c mouse model of skin wound infection assessed as wound heal at 10 mg/kg, ip administered thrice at 1, 24 and 48 hrs post-infection measured after 14 days in presence of polymyxin B relative to control; assay type: functional; settings: time 14 day
[37] = tested on: Staphylococcus aureus; assay: as §1, with “reduction in TNF-alpha activity in skin” for “wound heal”, “by IHC analysis” for “in presence of polymyxin B relative to control”; assay type: functional, organism-based; settings: time 14.0 day

Compound: CCCCCCCCCCCC(=O)N[C@H](CCCNC(=N)N)C(=O)N[C@H](CCCNC(=N)N)C(=O)N[C@H](Cc1c[nH]c2ccccc12)C(=O)O
- MIC [1]: 4 µM (≈ 2.8 µg/mL)
- MIC [2]: 2 µM (≈ 1.4 µg/mL)
- MIC [3]: 8 µM (≈ 5.59 µg/mL)
- MIC [4]: 4 µM
- MIC [5]: 4 µM
- metabolised at 96 h [6]: ~20%
- Activity [7]: Active; Compound Exhibited Better Effect Than Compound Alone-Treatment; Although It Was Lower Than Polymyxin B, It Significantly Reduced Dosage Of Polymyxin B And Reduced Toxicity Of The Drug
- Activity [8]: Dose-dependent-effect
- Activity [9]: inactive
- inhibition [10]: Active
- inhibition [11]: Active
- fractional inhibitory concentration index (FICI) [12]: 0.25
- Activity [13]: Active; Compound Activity Was Slightly Weaker Than Vancomycin But Significantly Better Than Polymyxin B, Imipenem, Ciprofloxacin And Gentamicin
- Activity [14]: Not active; Compound Activity Was Not Significant
- Activity [15]: Dose-dependent-effect
- Activity [16]: Active
- Activity [17]: Active
- Activity [18]: Dose-dependent-effect
- Activity [19]: Active
- Activity [20]: Not active; Compound Exhibited Weak Affinity
- Activity [21]: Toxic
- Activity [22]: Toxic
- Activity [23]: Non-toxic
- Activity [24]: Non-toxic
- Activity [25]: Non-toxic
- Activity [26]: Toxic
- Activity [27]: Toxic
- Activity [28]: Toxic
- Activity [29]: Active
- Activity [30]: Active
- Activity [31]: Active
- Activity [32]: Active
- inhibition [33]: Active
- Activity [34]: Active
- Activity [35]: Active
- Activity [36]: 100%
- Activity [37]: Active
